These results are taken from patent publication US12441754B2, “Galactoside inhibitor of galectins” (GALECTO BIOTECH AB, priority 2019, dated 2025).

For one assay, the target named is Galectin-1 (Homo sapiens, UniProt P09382). As to the kind of experiment: fluorescence anisotropy assay, compound as inhibitor of galectin / fluorescein tagged saccharide probe interaction. The assay is classed as binding. An excerpt:
(§1) Anal. Biochem. 334: 36-47, (Sörme et al., 2004) and Monovalent interactions of Galectin-1 By Salomonsson, Emma; Larumbe, Amaia; Tejler, Johan; Tullberg, Erik; Rydberg, Hanna; Sundin, Anders; Khabut, Areej; Frejd, Torbjorn; Lobsanov, Yuri D.; Rini, James M.; et al, From Biochemistry (2010), 49(44), 9518-9532, (Salomonsson et al., 2010).
In general terms: Fluorescence polarisation rises when a labelled molecule tumbles more slowly, as on binding a larger partner.

Another assay deals with Galectin-3 (Homo sapiens, UniProt P17931). The assay is described as above. The assay is classed as binding.
Text: as §1

Each structure is given as a SMILES string.

Galectin-3, sequence (P17931 whole entry): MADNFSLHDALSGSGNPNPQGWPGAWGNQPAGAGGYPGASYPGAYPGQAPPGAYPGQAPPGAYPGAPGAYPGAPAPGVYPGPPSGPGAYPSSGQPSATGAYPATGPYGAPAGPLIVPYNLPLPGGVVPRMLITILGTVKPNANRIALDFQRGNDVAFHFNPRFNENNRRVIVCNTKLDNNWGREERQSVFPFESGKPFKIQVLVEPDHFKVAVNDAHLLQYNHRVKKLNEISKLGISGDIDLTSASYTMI
Galectin-1, sequence (P09382 whole entry): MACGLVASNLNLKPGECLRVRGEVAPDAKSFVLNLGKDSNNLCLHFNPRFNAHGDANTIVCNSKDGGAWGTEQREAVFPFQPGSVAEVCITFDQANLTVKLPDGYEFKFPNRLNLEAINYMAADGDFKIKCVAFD

Turning to `N#Cc1ccc(S[C@H]2O[C@H](CO)[C@H](O)[C@H](n3cc(-c4nc(Cl)cs4)nn3)[C@H]2O)cc1Cl` [Example 52, 3-Chloro-4-cyanophenyl 3-[4-(4-chlorothiazol-2-yl)-1H-1,2,3-triazol-1-yl]-3-deoxy-1-thio-α-D-galactopyranoside], the results for the Kd at Galectin-1 and on Galectin-3 were 170 nM and 410 nM, respectively.
In the case of `N#Cc1ncc(Cl)cc1S[C@H]1O[C@H](CO)[C@H](O)[C@H](n2cc(-c3csc(N)n3)nn2)[C@H]1OCc1ccccc1` [Example 19, 5-Chloro-2-cyanopyridin-3-yl 3-[4-(2-aminothiazol-4-yl)-1H-1,2,3-triazol-1-yl]-2-O-benzyl-3-deoxy-1-thio-α-D-galactopyranoside], the Kd on Galectin-1 was found to be 79 nM; on Galectin-3, 1800 nM.
As for `CO[C@@H]1[C@@H](n2cc(-c3nc(C)c(Cl)s3)nn2)[C@@H](O)[C@@H](CO)O[C@@H]1Sc1cc(Br)cnc1C#N` [Example 64, 5-Bromo-2-cyanopyridin-3-yl 3-[4-(5-chloro-4-methylthiazol-2-yl)-1H-1,2,3-triazol-1-yl]-3-deoxy-2-O-methyl-1-thio-α-D-galactopyranoside], the Kd is 280 nM at Galectin-1 and 220 nM on Galectin-3.
In the same order, the values of `CO[C@@H]1[C@@H](n2cc(-c3csc(N)n3)nn2)[C@@H](O)[C@@H](CO)O[C@@H]1Sc1cncc(C#N)c1` [Example 40, 5-Cyanopyridin-3yl 3-[4-(2-aminothiazol-4-yl)-1H-1,2,3-triazol-1-yl]-3-deoxy-2-O-methyl-1-thio-α-D-galactopyranoside] are 240 nM and 10700 nM.
For `N#Cc1ncc(Cl)cc1S[C@H]1O[C@H](CO)[C@H](O)[C@H](n2cc(-c3csc(Cl)n3)nn2)[C@H]1O` [Example 70, 5-Chloro-2-cyanopyridin-3-yl 3-[4-(2-chlorothiazol-4-yl)-1H-1,2,3-triazol-1-yl]-3-deoxy-1-thio-α-D-galactopyranoside], the Kd worked out at 330 nM on Galectin-1 and 420 nM on Galectin-3.
In the case of `C#Cc1cnc(C#N)c(S[C@H]2O[C@H](CO)[C@H](O)[C@H](n3cc(-c4csc(N)n4)nn3)[C@H]2OC)c1` [Example 85, 2-Cyano-5-ethynylpyridin-3-yl 3-[4-(2-aminothiazol-4-yl)-1H-1,2,3-triazol-1-yl]-3-deoxy-2-O-methyl-1-thio-α-D-galactopyranoside], the values for the Kd on Galectin-1 and at Galectin-3 were 110 nM and 7700 nM, respectively.
In the same order, the values of `Cc1cnc(C#N)c(S[C@H]2O[C@H](CO)[C@H](O)[C@H](n3cc(-c4nc(Cl)cs4)nn3)[C@H]2O)c1` [Example 77, 2-Cyano-5-methylpyridin-3-yl 3-[4-(4-chlorothiazol-2-yl)-1H-1,2,3-triazol-1-yl]-3-deoxy-1-thio-α-D-galactopyranoside] are 830 nM and 860 nM.
In the same order, the values of `CO[C@@H]1[C@@H](n2cc(-c3csc(N)n3)nn2)[C@@H](O)[C@@H](CO)O[C@@H]1Sc1cc(Cl)cnc1-c1cncnc1` [Example 21, 5-Chloro-2-(pyrimidin-5-yl)pyridin-3-yl 3-[4-(2-aminothiazol-4-yl)-1H-1,2,3-triazol-1-yl]-3-deoxy-2-O-methyl-1-thio-α-D-galactopyranoside] are 45 nM and 2300 nM.
Consider `CCOC1C(n2cc(-c3csc(N)n3)nn2)[C@@H](O)C(CO)O[C@@H]1Sc1ccc(C#N)c(Cl)c1` (some centres unmarked) [Example 88], for which the Kd is 130 nM on Galectin-1 and 7700 nM on Galectin-3.
Consider `CO[C@@H]1[C@@H](n2cc(-c3csc(N)n3)nn2)[C@@H](O)[C@@H](CO)O[C@@H]1Sc1cc(Cl)cnc1-c1ccccn1` [Example 26, 5-Chloro-2-(pyridin-2-yl)pyridin-3-yl 3-[4-(2-aminothiazol-4-yl)-1H-1,2,3-triazol-1-yl]-3-deoxy-2-O-methyl-1-thio-α-D-galactopyranoside], for which the Kd on Galectin-1 was 17 nM; on Galectin-3, 1700 nM.
In the case of `OC[C@H]1O[C@H](Sc2cc(Cl)c(F)c(Cl)c2)C[C@@H](n2cc(-c3csc(O)n3)nn2)[C@H]1O` [Example 41, 3,5-Dichloro-4-fluorophenyl 2,3-dideoxy-3-[4-(2-hydroxythiazol-4-yl)-1H-1,2,3-triazol-1-yl]-1-thio-α-D-galactopyranoside], the equilibrium dissociation constant (Kd) turned out to be 130 nM at Galectin-1 and 9300 nM at Galectin-3.
With `CO[C@@H]1[C@@H](n2cc(-c3nccs3)nn2)[C@@H](O)[C@@H](CO)O[C@@H]1Sc1cc(Cl)ccc1Cl` [Example 66, 2,5-Dichlorophenyl 3-deoxy-2-O-methyl-3-[4-(2-thiazolyl)-1H-1,2,3-triazol-1-yl]-1-thio-α-D-galactopyranoside], the dissociation constant (Kd) on Galectin-1 turned out to be 220 nM; at Galectin-3 it was 4100 nM.
In the case of `CO[C@@H]1[C@@H](n2cc(-c3nccs3)nn2)[C@@H](O)[C@@H](CO)O[C@@H]1Sc1cc(Cl)ccc1F` [Example 68, 5-Chloro-2-fluorophenyl 3-deoxy-2-O-methyl-3-[4-(2-thiazolyl)-1H-1,2,3-triazol-1-yl]-1-thio-α-D-galactopyranoside], the Kd on Galectin-1 came out at 250 nM; on Galectin-3, 4400 nM.
The like results for `CO[C@@H]1[C@@H](n2cc(-c3nc(C)cs3)nn2)[C@@H](O)[C@@H](CO)O[C@@H]1Sc1cc(Br)ccc1F` [Example 69, 5-Bromo-2-fluorophenyl 3-deoxy-3-[4-(4-methylthiazol-2-yl)-1H-1,2,3-triazol-1-yl]-2-O-methyl-1-thio-α-D-galactopyranoside] were, in that order, 650 nM and 12000 nM.
In the same order, the values of `CO[C@@H]1[C@@H](n2cc(-c3nc(Cl)cs3)nn2)[C@@H](O)[C@@H](CO)O[C@@H]1Sc1ccc2ncsc2c1` [Example 97, 1,3-Benzothiazol-6-yl 3-[4-(4-chlorothiazol-2-yl)-1H-1,2,3-triazol-1-yl]-3-deoxy-2-O-methyl-1-thio-α-D-galactopyranoside] are 83 nM and 320 nM.
In the same order, the values of `CNC(=O)c1ccc(Cl)cc1S[C@H]1OC(CO)[C@H](O)C(n2cc(-c3nccs3)nn2)C1OC` (stereo partly drawn) [Example 62, 5-Chloro-2-(N-methyl-carbonyl)phenyl 3-deoxy-2-O-methyl-3-[4-(2-thiazolyl)-1H-1,2,3-triazol-1-yl]-1-thio-α-D-galactopyranoside] are 78 nM and 3100 nM.
Turning to `CO[C@@H]1[C@@H](n2cc(-c3csc(O)n3)nn2)[C@@H](O)[C@@H](CO)O[C@@H]1Sc1ccc2ncsc2c1` [Example 98, 1,3-Benzothiazol-6-yl 3-deoxy-3-[4-(2-hydroxythiazol-4-yl)-1H-1,2,3-triazol-1-yl]-2-O-methyl-1-thio-α-D-galactopyranoside], the results for the Kd on Galectin-1 and on Galectin-3 were 64 nM and 6500 nM, respectively.
In the case of `N#Cc1ncc(Cl)cc1S[C@H]1O[C@H](CO)[C@H](O)[C@H](n2cc(-c3nccs3)nn2)[C@H]1OCc1ccccc1` [Example 5, 5-Chloro-2-cyanopyridin-3-yl 2-O-benzyl-3-deoxy-3-[4-(2-thiazolyl)-1H-1,2,3-triazol-1-yl]-1-thio-α-D-galactopyranoside], the dissociation constant Kd on Galectin-1 worked out at 190 nM; on Galectin-3, 1800 nM.
For `N#Cc1ccc(S[C@@H]2C[C@@H](n3cc(-c4csc(O)n4)nn3)[C@@H](O)[C@@H](CO)O2)cc1Cl` [Example 89, 3-Chloro-4-cyanophenyl 2,3-dideoxy-3-[4-(2-hydroxythiazol-4-yl)-1H-1,2,3-triazol-1-yl]-1-thio-α-D-galactopyranoside], the values for the equilibrium dissociation constant (Kd) at Galectin-1 and at Galectin-3 were 210 nM and 10500 nM, respectively.

What is called Kd is the free concentration of one partner at which half of the binding sites on the other are occupied at equilibrium, for simple one-to-one binding. Read a low Kd as tighter binding.
